Values of other authors, collected in US12279614B2, “Photo-polymerizable, universal antimicrobial coating to produce high-performing, multi-functional face masks” (The Governors of the University of Alberta, priority 2022, dated 2025).

Tested on: Human Adenovirus Type 8
Details: incubation time 1 hr

Benzalkonium chloride
Inactivation efficiency: 1.01 log reduction
